Usually IC50 stands for the midpoint of a concentration-inhibition curve.

A short description of series [1]: In vitro stability behavior at 4 hr. The conditions noted are these: read-out: Turnover. It counts as physicochemical.
In series [2] the test system is Hepatitis C virus. Briefly: Inhibitory activity against hepatitis C virus protease enzyme(HCV) by using ELISA replicon assay. The class given is functional, organism-based, Hepacivirus hominis. (In general: ELISA stands for enzyme-linked immunosorbent assay.)
The test system of series [3] is Hepatitis C virus. Briefly: Inhibitory activity against hepatitis C virus protease enzyme(HCV) NS3/4A. The class given is functional, Hepacivirus hominis.

Take `CC(C)C(=O)N1C(=O)C2(CCC2)[C@@H]2[C@@H]1CCN2C(=O)[C@@H](NC(=O)OC(C)(C)C)C(C)C` (relative stereo): in series [1], the degraded at 4 h is 5%. In addition, in the series on Hepatitis C virus [2], it took 3.1 µM to reach half-maximal inhibition (IC50). The “k obs / 1” value in the series with Hepatitis C virus [3] amounted to 166 M⁻¹ s⁻¹.

Turning to `C=C(C)C(=O)N1C(=O)C2(CCC2)[C@@H]2[C@@H]1CCN2C(=O)[C@@H](NC(=O)OC(C)(C)C)C(C)C`, the “k obs / 1” value in the series with Hepatitis C virus [3] worked out at 24 M⁻¹ s⁻¹.

With `CC(C)C(NC(=O)OC(C)(C)C)C(=O)N1CC[C@H]2[C@H]1C1(CC=CC1)C(=O)N2C(=O)C1CC1` (relative stereo), in the series with Hepatitis C virus [3], the “k obs / 1” value was found to be 19 M⁻¹ s⁻¹.

Take `CC(C)[C@H](NC(=O)OC(C)(C)C)C(=O)N1CC[C@H]2[C@H]1C1(CCC1)C(=O)N2C(=O)C1CC1`: the degraded at 4 h in series [1] was 27%. This molecule had an IC50 in the series on Hepatitis C virus [2] of 4 µM. Moreover, in the series with Hepatitis C virus [3], the “k obs / 1” value worked out at 400 M⁻¹ s⁻¹.

On to `CC(C)C(NC(=O)OC(C)(C)C)C(=O)N1CC[C@H]2[C@H]1C1(SCCS1)C(=O)N2C(=O)C1CC1` (relative stereo), for which the degraded at 4 h in series [1] was greater than 50%. This molecule also registered an IC50 in the series on Hepatitis C virus [2] greater than 100 µM. Further, in the series on Hepatitis C virus [3], the “k obs / 1” value worked out at 621 M⁻¹ s⁻¹.

As to `CCN(CC)C(=O)N1C(=O)C2(CCC2)[C@@H]2[C@@H]1CCN2C(=O)[C@@H](NC(=O)OC(C)(C)C)C(C)C`, in the series with Hepatitis C virus [3], the “k obs / 1” value worked out at 3.3 M⁻¹ s⁻¹.

Consider `CSC(=O)N1C(=O)C2(CCC2)[C@@H]2[C@@H]1CCN2C(=O)[C@@H](NC(=O)OC(C)(C)C)C(C)C`, for which half-maximal inhibition in the series on Hepatitis C virus [2] (IC50) required 7.9 µM. For the same molecule, the “k obs / 1” value in the series with Hepatitis C virus [3] amounted to 154 M⁻¹ s⁻¹.

Regarding `CC(C)C(=O)N1C(=O)C2(SCCS2)[C@@H]2[C@@H]1CCN2C(=O)C(NC(=O)OC(C)(C)C)C(C)C` (some centres not stated), the degraded at 4 h in series [1] was greater than 50%. Further, the IC50 in the series with Hepatitis C virus [2] came to 17 µM. Moreover, the “k obs / 1” value in the series with Hepatitis C virus [3] came to 362 M⁻¹ s⁻¹.

The values above are taken from ChEMBL document CHEMBL1136375, “Design and synthesis of spiro-cyclopentenyl and spiro-[1,3]-dithiolanyl substituted pyrrolidine-5,5-trans-lactams as inhibitors of hepatitis C virus NS3/4A protease” (Bioorg Med Chem Lett, 2003).
